Assay results taken from publication PMC4791286, “Puquitinib mesylate, an inhibitor of phosphatidylinositol 3-kinase p110δ, for treating relapsed or refractory non-Hodgkin's lymphoma” (Oncotarget, 2015).
Where “and” joins values, the source holds several entries; their conditions need not be identical. Equal entries are not always repeated. Structures can show the parent of a compound that is named as a salt. Where two headings read alike, the source gives them in different places.

Assays:
[1] = Phase I study, pharmacokinetics of XC-302 in patients; assay type: in vivo, human
Description: Detailed pharmacokinetic were analyzed by taking blood samples before (within 1 hour) and after (every 2 hours) dosing on days 1, 28 of cycle 1. Plasma concentrations of XC-302 were measured with a validated liquid chromatography assay. Pharmacokinetic measures, such as the maximum plasma concentration (Cmax) and area under the time-concentration curve (AUC), were estimated in every patient.

[2] = system: relapsed or refractory non-Hodgkin's lymphoma; assay: Phase I study, antitumor activity (response, PFS); assay type: in vivo, human
Description: This was a phase I open label, dose-escalation study whose primary objective was to characterize the safety of XC-302 in adult Chinese patients with advanced lymphoma administered on a 28-day cycle. Others were to determine the pharmacokinetics (PK) characteristics and anti-tumor activity. The anti-tumor effects of XC-302 were evaluated every 2 cycles with the Standardized Response Criteria of the National Cancer Institute International Working Group (IWG). Efficacy evaluation for CLL was on account of IWCLL criteria while for NHL, it was analyzed by IWG response criteria. Patients with stable disease or partial remission were allowed to continue therapy until progressive disease or toxicity was observed.

PI3K p110γ = system: PI3K p110γ; parameters: method as in earlier work; conditions: ref unpublished information, personal communication with Wei Mao on January 1, 2013; read-out: IC50 against PI3K isoform p110γ; cited from earlier work
[3] = system: AKT phosphorylation mediated by EGFR; parameters: method as in earlier work; conditions: ref unpublished information, personal communication with Wei Mao on January 1, 2013; cited from earlier work
KDR = system: KDR; parameters: method as in earlier work; conditions: ref unpublished information, personal communication with Wei Mao on January 1, 2013; read-out: IC50, receptor tyrosine kinase KDR; cited from earlier work
PDGFR β = system: PDGFR β; parameters: method as in earlier work; conditions: ref unpublished information, personal communication with Wei Mao on January 1, 2013; read-out: IC50, receptor tyrosine kinase PDGFR β; cited from earlier work
[4] = system: vascular endothelial cells lumen; parameters: method as in earlier work; conditions: ref unpublished information, personal communication with Wei Mao on January 1, 2013; read-out: IC50, formation of the vascular endothelial cells lumen; cited from earlier work
[5] = system: xenografts with cancer of the colon, stomach, or lung; parameters: method as in earlier work; conditions: nude mice, ref unpublished information, personal communication with Wei Mao on January 1, 2013; cited from earlier work
[6] = parameters: method as in earlier work; conditions: pre-clinical; ref unpublished information, personal communication with Wei Mao on January 1, 2013; cited from earlier work
[7] = parameters: method as in earlier work; conditions: toxicology experiments; ref unpublished information, personal communication with Wei Mao on January 1, 2013; cited from earlier work
CYP1A2 enzyme = conditions: preliminary study; cited from earlier work
[8] = system: cell lines with drug resistance mediated by p170/MDR-1 / p-Glycoprotein; parameters: method as in earlier work; conditions: p170/MDR-1 / p-Glycoprotein mediated resistance; ref unpublished information, personal communication with Wei Mao on January 1, 2013; cited from earlier work
PI3K p110α = conditions: read-out: IC50 against PI3K isoform p110α; ref unpublished information, personal communication with Wei Mao on January 1, 2013; cited from earlier work
PI3K p110β = conditions: read-out: IC50 against PI3K isoform p110β; ref unpublished information, personal communication with Wei Mao on January 1, 2013; cited from earlier work
PI3K p110δ = conditions: read-out: IC50 against PI3K isoform p110δ; ref unpublished information, personal communication with Wei Mao on January 1, 2013; cited from earlier work
advanced solid tumors = conditions: ref unpublished information, personal communication with Wei Mao on January 1, 2013, cited from earlier work; for Maximum tolerated dose (MTD): single agent, postprandial

## c1cnc2ccc(Nc3nc(NC4CC4)c4nc[nH]c4n3)cc2c1 [XC-302, Puquitinib Mesylate]
[1]; 25 mg to 50 mg, days 1 and 28
  Pharmacokinetic response (AUClast and Cmax vs dose): linear
[1]; human, serum, oral, 25 to 50 mg BID, patients, read-out: Time of peak serum concentration after administration
  Tmax: ~4 h
[2]; 25 mg BID, n = 3
  Complete response: 0 n
  Minor response: 0 n
  Partial response: 0 n
  Progressive disease: 0 n
  Stable disease: 3 n
[2]; 37.5 mg BID, n = 9
  Complete response: 0 n
  Minor response: 0 n
  Partial response: 0 n
  Progressive disease: 8 n
  Stable disease: 1 n
[2]; 50 mg BID (n = 7)
  Complete response: 0 n
  Minor response: 1 n
  Overall response rate: 2 n
  Partial response: 1 n
  Progressive disease: 3 n
  Stable disease: 2 n
[2]; All (n = 21; 19 evaluable)
  Complete response: 0 n
  Minor response: 1 n
  Overall response rate: 2 n
  Partial response: 1 n
  Progressive disease: 11 n
  Stable disease: 6 n
[2]; all evaluable patients
  Progression free survival (PFS), median (95% CI): 1.9 (95% CI, 1.7 to 2.0) months and 1.9 months
[2]; printed as for all 19 patients
  Duration of response, median (range): 7.1 (6.9 to 7.3) months
[2]; the two responding patients, individual values
  Time to response: 1.8 months and 1.84 months
25 mg BID, n = 3
  ALT, increased, adverse event, any grade: 2 n
  Anemia, adverse event, any grade: 1 n
  Creatinine, increased, adverse event, any grade: 1 n
  Fecal occult blood, adverse event, any grade: 1 n
  Hematuresis, adverse event, any grade: 1 n
  Leukopenia, adverse event, any grade: 1 n
  Thrombocytopenia, adverse event, any grade: 1 n
37.5 mg BID, n = 9
  ALT, increased, adverse event, any grade: 5 n
  AST, increased, adverse event, any grade: 1 n
  Anemia, adverse event, any grade: 4 n
  Anemia, adverse event, grade ≥3: 1 n
  Constipation, adverse event, any grade: 1 n
  Fecal occult blood, adverse event, any grade: 2 n
  Hematuresis, adverse event, any grade: 1 n
  Leukopenia, adverse event, any grade: 1 n
  Nausea, adverse event, any grade: 1 n
  Neutropenia, adverse event, any grade: 2 n
  Proteinuria, adverse event, any grade: 1 n
  Pyrexia, adverse event, any grade: 2 n
  S-T-segment change, adverse event, any grade: 1 n
  Thrombocytopenia, adverse event, any grade: 2 n
  Thrombocytopenia, adverse event, grade ≥3: 1 n
  URI, adverse event, any grade: 2 n
50 mg BID group
  Patients with dose-limiting toxicity (grade 3 transaminases elevation): Four
50 mg BID, n = 9
  ALT, increased, adverse event, any grade: 7 n
  ALT, increased, adverse event, grade ≥3: 4 n
  AST, increased, adverse event, any grade: 6 n
  AST, increased, adverse event, grade ≥3: 1 n
  Anemia, adverse event, any grade: 2 n
  Arrhythmia, adverse event, any grade: 1 n
  Constipation, adverse event, any grade: 1 n
  Creatinine, increased, adverse event, any grade: 1 n
  Diarrhea, adverse event, any grade: 2 n
  Fecal occult blood, adverse event, any grade: 1 n
  Hematuresis, adverse event, any grade: 1 n
  Leukopenia, adverse event, any grade: 2 n
  Nausea, adverse event, any grade: 1 n
  Neutropenia, adverse event, any grade: 3 n
  Neutropenia, adverse event, grade ≥3: 2 n
  Peripheral nerve toxicity, adverse event, any grade: 1 n
  Pyrexia, adverse event, any grade: 2 n
  Rash, adverse event, any grade: 2 n
  S-T-segment change, adverse event, any grade: 1 n
  Thrombocytopenia, adverse event, any grade: 1 n
  Thrombocytopenia, adverse event, grade ≥3: 1 n
  URI, adverse event, any grade: 2 n
25-mg or 37.5-mg doses
  DLT events: No DLT events
Overall
  ALT, increased, adverse event, any grade: 14 n
  ALT, increased, adverse event, grade ≥3: 4 n
  AST, increased, adverse event, any grade: 7 n
  AST, increased, adverse event, grade ≥3: 1 n
  Anemia, adverse event, any grade: 7 n
  Arrhythmia, adverse event, any grade: 1 n
  Constipation, adverse event, any grade: 2 n
  Creatinine, increased, adverse event, any grade: 2 n
  Diarrhea, adverse event, any grade: 2 n
  Fecal occult blood, adverse event, any grade: 4 n
  Hematuresis, adverse event, any grade: 3 n
  Leukopenia, adverse event, any grade: 4 n
  Nausea, adverse event, any grade: 2 n
  Neutropenia, adverse event, any grade: 5 n
  Neutropenia, adverse event, grade ≥3: 2 n
  Peripheral nerve toxicity, adverse event, any grade: 1 n
  Proteinuria, adverse event, any grade: 1 n
  Pyrexia, adverse event, any grade: 4 n
  Rash, adverse event, any grade: 2 n
  S-T-segment change, adverse event, any grade: 2 n
  Thrombocytopenia, adverse event, any grade: 4 n
  Thrombocytopenia, adverse event, grade ≥3: 2 n
  URI, adverse event, any grade: 4 n
All 21 patients
  Anemia, frequency of AE: 33.3%
  Creatinine elevation, frequency of AE: 9.5%
  Elevated alanine transaminase (ALT), frequency of AE: 66.7%
  Elevated aspartate transaminase (AST), frequency of AE: 33.3%
  Fecal occult blood, frequency of AE: 19.0%
  Hematuresis, frequency of AE: 14.3%
  Myocardial ischemia, frequency of AE: 9.5%
  Neutropenia, frequency of AE: 23.8%
  Rash, frequency of AE: 9.5%
  Thrombocytopenia, frequency of AE: 19.0%
  Upper respiratory infection (URI), frequency of AE: 19.0%
All patients
  Drug-related hyperglycemia: no XC302-related hyperglycemia
Twice a day, 28-day cycle, NHL patients
  Maximum tolerated dose (MTD): 50 mg
PI3K p110γ
  IC50: 89.7 nM
[3]
  IC50: 100 nM
KDR
  IC50: 1000 nM
PDGFR β
  IC50: 1000 nM
[4]
  IC50: 100 nM
[5]
  Anti-tumor efficacy in xenografts: obvious anti-tumor efficacy
[6]
  Absolute bioavailability: high absolute bioavailability
  Absorption: rapidly absorbed
[7]
  Toxicity: low toxicity
CYP1A2 enzyme
  Inhibition of CYP1A2 enzyme activity: irreversibly inhibited
[8]
  Sensitivity of drug-resistant cell lines: similarly sensitive
PI3K p110α
  IC50: 767 nM
PI3K p110β
  IC50: 699 nM
PI3K p110δ
  IC50: 2.8 nM
Advanced solid tumors; advanced solid tumors
  Disease control rate: 52.5%
Advanced solid tumors; clinical PK monitoring
  Oral bioavailability: good oral bioavailability
Advanced solid tumors; continuous daily schedule
  Maximum tolerated dose (MTD): 75 mg
Advanced solid tumors; twice daily (BID)
  Maximum tolerated dose (MTD): 50 mg
